Target: T1, CFTR (Homo sapiens, UniProt P13569, DEL508-508)
T1 construct: Primary CF airway epithelial cells were obtained from the UNC Cystic Fibrosis Tissue Procurement and Cell Culture Core; host or cells: primary CF airway epithelial cells, differentiated at the air-liquid interface
Assay: Equivalent current assay in primary CF airway epithelial cells (NAUC, combination with 1st site corrector FDL169 or VX-809)
Format: cell-based
Conditions: 37° C., 24 h

[1] = test compound 3 μM in combination with 1st site corrector VX-809 (3 μM)
[2] = test compound 10 μM in combination with 1st site corrector VX-809 (3 μM)
[3] = test compound 1 μM in combination with 1st site corrector FDL169 (3 μM)
[4] = test compound 3 μM in combination with 1st site corrector FDL169 (3 μM)
[5] = test compound 1 μM in combination with 1st site corrector VX-809 (3 μM)

T1 sequence (P13569 with tags, fused parts or gaps DEL508-508): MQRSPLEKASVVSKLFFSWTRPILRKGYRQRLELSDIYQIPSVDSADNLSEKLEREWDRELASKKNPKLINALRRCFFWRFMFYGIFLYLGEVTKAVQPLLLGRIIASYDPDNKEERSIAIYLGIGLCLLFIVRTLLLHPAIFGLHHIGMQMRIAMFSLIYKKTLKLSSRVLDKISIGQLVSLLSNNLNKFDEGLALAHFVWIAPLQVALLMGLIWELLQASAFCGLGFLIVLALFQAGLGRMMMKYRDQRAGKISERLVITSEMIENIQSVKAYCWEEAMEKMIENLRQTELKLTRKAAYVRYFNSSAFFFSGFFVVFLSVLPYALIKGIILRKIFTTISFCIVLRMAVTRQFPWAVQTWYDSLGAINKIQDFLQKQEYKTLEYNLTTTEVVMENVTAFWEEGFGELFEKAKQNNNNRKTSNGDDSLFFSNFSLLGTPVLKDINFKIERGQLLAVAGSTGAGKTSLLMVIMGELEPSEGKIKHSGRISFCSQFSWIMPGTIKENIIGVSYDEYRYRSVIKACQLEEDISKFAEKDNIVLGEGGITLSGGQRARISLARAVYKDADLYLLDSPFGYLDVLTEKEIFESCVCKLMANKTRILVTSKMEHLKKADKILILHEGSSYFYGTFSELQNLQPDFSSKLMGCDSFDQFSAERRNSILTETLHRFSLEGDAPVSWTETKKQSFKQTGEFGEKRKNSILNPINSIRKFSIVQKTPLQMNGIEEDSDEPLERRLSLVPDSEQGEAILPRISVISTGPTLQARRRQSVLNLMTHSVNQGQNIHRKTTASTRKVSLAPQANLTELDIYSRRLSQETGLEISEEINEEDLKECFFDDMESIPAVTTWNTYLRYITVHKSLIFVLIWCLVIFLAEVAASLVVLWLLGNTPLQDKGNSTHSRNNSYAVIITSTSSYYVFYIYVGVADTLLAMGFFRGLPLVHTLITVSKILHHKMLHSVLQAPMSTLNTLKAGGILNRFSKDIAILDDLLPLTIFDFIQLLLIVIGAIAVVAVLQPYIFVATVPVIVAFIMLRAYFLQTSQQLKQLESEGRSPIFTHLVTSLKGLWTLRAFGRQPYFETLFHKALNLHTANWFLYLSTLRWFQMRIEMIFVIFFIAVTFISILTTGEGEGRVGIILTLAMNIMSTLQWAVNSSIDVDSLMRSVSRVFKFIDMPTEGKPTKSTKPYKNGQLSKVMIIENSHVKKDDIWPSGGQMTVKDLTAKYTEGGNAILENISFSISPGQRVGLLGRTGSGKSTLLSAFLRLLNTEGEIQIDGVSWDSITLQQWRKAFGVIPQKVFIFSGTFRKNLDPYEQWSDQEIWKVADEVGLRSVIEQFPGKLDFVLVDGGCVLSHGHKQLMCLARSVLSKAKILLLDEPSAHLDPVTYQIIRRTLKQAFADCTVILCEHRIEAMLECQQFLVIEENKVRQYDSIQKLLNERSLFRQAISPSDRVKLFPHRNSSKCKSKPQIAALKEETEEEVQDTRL

Compound | Nauc @ 3 μM [1] | Nauc @ 10 μM [2] | Nauc @ 1 μM [3] | Nauc @ 3 μM [4] | Nauc @ 1 μM [5] | Nauc @ 10 μM (test compound 10 μM in combination with 1st site corrector FDL169 (3 μM))
O=C(Nc1cc(Cl)cc(Cl)c1)C1C2CCCN2C2(C(=O)Nc3c(Cl)cc(Cl)cc32)C1C(=O)O (stereo not drawn) [Example 15] | +++ (NAUC “+++” refers to an observed NAUC>170% of positive control) | +++ (NAUC “+++” refers to an observed NAUC>170% of positive control) |  |  |  | 
O=C(Nc1cncc(C(F)(F)F)n1)C1C2C[C@H](C(F)(F)F)CN2C2(C(=O)Nc3c(Cl)cc(Cl)cc32)C1C(=O)O (stereo partly drawn) [Example 18] | + (NAUC “+” refers to an observed NAUC <140% of positive control) | +++ (NAUC “+++” refers to an observed NAUC>170% of positive control) |  |  |  | 
Cn1cc2cc(NC(=O)[C@H]3[C@H]4CC(F)(F)CN4[C@]4(C(=O)Nc5c(Cl)cc(Cl)cc54)[C@H]3C(=O)O)ccc2n1 [Example 143] |  |  | + (NAUC “+” refers to an observed NAUC <140% of positive control) | + (NAUC “+” refers to an observed NAUC <140% of positive control) |  | 
O=C(Nc1cc(Cl)cc(Cl)c1)C1C(Cc2ccccc2)NC2(C(=O)Nc3c(Cl)cc(Cl)cc32)C1C(=O)O (stereo not drawn) [Example 34] | +++ (NAUC “+++” refers to an observed NAUC>170% of positive control) | ++ (NAUC “++” refers to an observed NAUC 170-140% of positive control) |  |  |  | 
O=C(Nc1ccc2scnc2c1)[C@H]1[C@H]2CC(F)(F)CN2[C@]2(C(=O)Nc3c(Cl)cc(Cl)cc32)[C@H]1C(=O)O [Example 128] | + (NAUC “+” refers to an observed NAUC <140% of positive control) |  |  |  | + (NAUC “+” refers to an observed NAUC <140% of positive control) | 
CC(C)(C)c1cccc(C(C)(C)CNC(=O)C2C3CC(F)(F)CN3C3(C(=O)Nc4c(Cl)cc(Cl)cc43)C2C(=O)O)c1 (stereo not drawn) [Example 64] |  | +++ (NAUC “+++” refers to an observed NAUC>170% of positive control) |  |  |  | 
CC(=O)OCOC(=O)[C@H]1[C@@H](C(=O)N(C)c2cc(Cl)cc(Cl)c2)[C@H]2CC(F)(F)CN2[C@]12C(=O)Nc1c(Cl)cc(Cl)cc12 (single isomer, unassigned) [Example 256b] |  | + (NAUC “+” refers to an observed NAUC <140% of positive control) |  |  |  | 
CN(C(=O)C1C2CC(F)(F)CN2C2(C(=O)Nc3c(Cl)cc(Cl)cc32)C1C(=O)O)c1cc(Cl)cc(Cl)c1 (stereo not drawn) [Example 57] | +++ (NAUC “+++” refers to an observed NAUC>170% of positive control) | +++ (NAUC “+++” refers to an observed NAUC>170% of positive control) |  |  |  | 
O=C(Nc1cc(Cl)cc(Cl)c1)C1C2CCCN2C2(C(=O)Nc3c(Cl)cc(Cl)cc32)C1C(=O)NO (single isomer, unassigned) [Example 234b, 5,7-dichloro-N1′-(3,5-dichlorophenyl)-N2′-hydroxy-2-oxo-1′,2′,5′,6′,7′,7a′-hexahydrospiro[indoline-3,3′-pyrrolizine]-1,2′-dicarboxamide] | ++ (NAUC “++” refers to an observed NAUC 170-140% of positive control) | +++ (NAUC “+++” refers to an observed NAUC>170% of positive control) |  |  | + (NAUC “+” refers to an observed NAUC <140% of positive control) | 
CC(=O)N1C(C(C)C)C(C(=O)Nc2cc(Cl)cc(Cl)c2)C(C(=O)O)C12C(=O)Nc1c(Cl)cc(Cl)cc12 (stereo not drawn) [Example 38] | + (NAUC “+” refers to an observed NAUC <140% of positive control) | ++ (NAUC “++” refers to an observed NAUC 170-140% of positive control) |  |  |  | 
O=C(Nc1cc(Cl)cc(Cl)c1)C1C(C(F)(F)c2cccc(C(F)(F)F)c2)NC2(C(=O)Nc3c(Cl)cc(Cl)cc32)C1C(=O)O (stereo not drawn) [Example 70.c] | + (NAUC “+” refers to an observed NAUC <140% of positive control) | +++ (NAUC “+++” refers to an observed NAUC>170% of positive control) |  |  | + (NAUC “+” refers to an observed NAUC <140% of positive control) | 
CN(C(=O)[C@H]1[C@H]2CC(F)(F)CN2[C@]2(C(=O)N(C)c3c(Cl)cc(Cl)cc32)[C@H]1C(=O)O)c1cc(Cl)cc(Cl)c1 [Example 200, (1′R,2′S,3R,7a′R)-5,7-dichloro-1-((3,5-dichlorophenyl)(methyl)carbamoyl)-6′,6′-difluoro-1-methyl-2-oxo-1′,2′,5′,6′,7′,7a′-hexahydrospiro[indoline-3,3′-pyrrolizine]-2′-carboxylic acid] | +++ (NAUC “+++” refers to an observed NAUC>170% of positive control) | +++ (NAUC “+++” refers to an observed NAUC>170% of positive control) | ++ (NAUC “++” refers to an observed NAUC 170-140% of positive control) | ++ (NAUC “++” refers to an observed NAUC 170-140% of positive control) | +++ (NAUC “+++” refers to an observed NAUC>170% of positive control) | ++ (NAUC “++” refers to an observed NAUC 170-140% of positive control)
O=C(O)[C@H]1[C@@H](C(=O)N(CC2CCCC2)c2cccc(C(F)(F)F)c2)[C@H]2CC(F)(F)CN2[C@]12C(=O)Nc1c(Cl)cc(Cl)cc12 [Example 181] |  |  | ++ (NAUC “++” refers to an observed NAUC 170-140% of positive control) | +++ (NAUC “+++” refers to an observed NAUC>170% of positive control) |  | 
CN(C(=O)[C@H]1[C@H]2CC(F)(F)CN2[C@]2(C(=O)Nc3c2ccc(Cl)c3Cl)[C@H]1C(=O)O)c1cc(Cl)cc(Cl)c1 (racemic) [Example 100, rac-(1′R,2′S,7a′R)-6,7-dichloro-1-((3,5-dichlorophenyl)(methyl)carbamoyl)-6′,6′-difluoro-2-oxo-1′,2′,5′,6′,7′,7a′-hexahydrospiro[indoline-3,3′-pyrrolizine]-2′-carboxylic acid] | + (NAUC “+” refers to an observed NAUC <140% of positive control) | + (NAUC “+” refers to an observed NAUC <140% of positive control) |  |  | + (NAUC “+” refers to an observed NAUC <140% of positive control) | 
O=C(Nc1cccc2c1OCCO2)[C@H]1[C@H]2CC(F)(F)CN2[C@]2(C(=O)Nc3c(Cl)cc(Cl)cc32)[C@H]1C(=O)O [Example 129] | + (NAUC “+” refers to an observed NAUC <140% of positive control) |  |  |  | + (NAUC “+” refers to an observed NAUC <140% of positive control) | 
O=C(Nc1nccc2ccccc12)[C@H]1[C@H]2CC(F)(F)CN2[C@]2(C(=O)Nc3c(Cl)cc(Cl)cc32)[C@H]1C(=O)O [Example 122] | + (NAUC “+” refers to an observed NAUC <140% of positive control) |  |  |  | + (NAUC “+” refers to an observed NAUC <140% of positive control) | 
CN(C(=O)[C@H]1[C@H]2CCCN2[C@]2(C(=O)Nc3c(Cl)cc(Cl)cc32)[C@H]1C(=O)O)c1cc(Cl)cc(Cl)c1 [Example 266] | +++ (NAUC “+++” refers to an observed NAUC>170% of positive control) | +++ (NAUC “+++” refers to an observed NAUC>170% of positive control) |  |  | + (NAUC “+” refers to an observed NAUC <140% of positive control) | 
C[C@]1(O)CC2C(C(=O)Nc3cc(Cl)cc(Cl)c3)C(C(=O)O)C3(C(=O)Nc4c(Cl)cc(Cl)cc43)N2C1 (stereo partly drawn) [Example 3] | +++ (NAUC “+++” refers to an observed NAUC>170% of positive control) | +++ (NAUC “+++” refers to an observed NAUC>170% of positive control) |  |  |  | 
CN(O)C(=O)C1C(C(=O)Nc2cc(Cl)cc(Cl)c2)C2CCCN2C12C(=O)Nc1c(Cl)cc(Cl)cc12 (single isomer, unassigned) [Example 235a, 5,7-dichloro-N1′-(3,5-dichlorophenyl)-N2′-hydroxy-N2′-methyl-2-oxo-1′,2′,5′,6′,7′,7a′-hexahydrospiro[indoline-3,3′-pyrrolizine]-1′,2′-dicarboxamide] | +++ (NAUC “+++” refers to an observed NAUC>170% of positive control) | +++ (NAUC “+++” refers to an observed NAUC>170% of positive control) |  |  | ++ (NAUC “++” refers to an observed NAUC 170-140% of positive control) | 
O=C(Nc1cc(Cl)cc(Cl)c1)C1CN(CC(F)(F)F)C2(C(=O)Nc3c(Cl)cc(Cl)cc32)C1C(=O)O (stereo not drawn) [Example 79b] | + (NAUC “+” refers to an observed NAUC <140% of positive control) | ++ (NAUC “++” refers to an observed NAUC 170-140% of positive control) |  |  | + (NAUC “+” refers to an observed NAUC <140% of positive control) | 
CONC(=O)[C@H]1[C@@H](C(=O)Nc2cc(Cl)cc(Cl)c2)[C@H]2CCCN2C12C(=O)Nc1c(Cl)cc(Cl)cc12 (stereo partly drawn) [Example 233, (1′R,2′S,7a′R)-5,7-dichloro-N1′-(3,5-dichlorophenyl)-N2′-methoxy-2-oxo-1′,2′,5′,6′,7′,7a′-hexahydrospiro[indoline-3,3′-pyrrolizine]-1,2′-dicarboxamide] | +++ (NAUC “+++” refers to an observed NAUC>170% of positive control) | +++ (NAUC “+++” refers to an observed NAUC>170% of positive control) |  |  | ++ (NAUC “++” refers to an observed NAUC 170-140% of positive control) | 

From patent US20230055237A1, “COMPOUNDS AND METHODS FOR THE TREATMENT OF CYSTIC FIBROSIS” (Flatley Discovery Lab, LLC, priority 2019, published 2023)
